Literature values as cited in US11376263B2, “Cyproterone acetate compositions and uses thereof” (FORTRESS BIOTECH, INC., priority 2020, dated 2022).

Tests used:
[1] = daily administration

| time to CPA steady state [1] | AUC and Cmax in obese women versus normal weight women (obese vs normal weight women) | mean oral bioavailability (oral, large inter- and intraindividual variability) | Compound |
| --- | --- | --- | --- |
| approximately 16 days |  |  | CC(=O)O[C@]1(C(C)=O)CC[C@H]2[C@@H]3C=C(Cl)C4=CC(=O)[C@@H]5C[C@@H]5[C@]4(C)[C@H]3CC[C@@]21C [CPA, cyproterone acetate] |
|  | lower | approximately 45% | C#C[C@]1(O)CC[C@H]2[C@@H]3CCc4cc(O)ccc4[C@H]3CC[C@@]21C [EE, ethinylestradiol] |
